The results in this text go back to patent EP0766694B1 (ZAMBON GROUP S.p.A., priority 1994, dated 1995).

Where a name gives a salt, the structure may show the parent alone.

One assay concerns the target T1, NEP (Rattus norvegicus, UniProt P07861).
T1 sequence (P07861 1-750): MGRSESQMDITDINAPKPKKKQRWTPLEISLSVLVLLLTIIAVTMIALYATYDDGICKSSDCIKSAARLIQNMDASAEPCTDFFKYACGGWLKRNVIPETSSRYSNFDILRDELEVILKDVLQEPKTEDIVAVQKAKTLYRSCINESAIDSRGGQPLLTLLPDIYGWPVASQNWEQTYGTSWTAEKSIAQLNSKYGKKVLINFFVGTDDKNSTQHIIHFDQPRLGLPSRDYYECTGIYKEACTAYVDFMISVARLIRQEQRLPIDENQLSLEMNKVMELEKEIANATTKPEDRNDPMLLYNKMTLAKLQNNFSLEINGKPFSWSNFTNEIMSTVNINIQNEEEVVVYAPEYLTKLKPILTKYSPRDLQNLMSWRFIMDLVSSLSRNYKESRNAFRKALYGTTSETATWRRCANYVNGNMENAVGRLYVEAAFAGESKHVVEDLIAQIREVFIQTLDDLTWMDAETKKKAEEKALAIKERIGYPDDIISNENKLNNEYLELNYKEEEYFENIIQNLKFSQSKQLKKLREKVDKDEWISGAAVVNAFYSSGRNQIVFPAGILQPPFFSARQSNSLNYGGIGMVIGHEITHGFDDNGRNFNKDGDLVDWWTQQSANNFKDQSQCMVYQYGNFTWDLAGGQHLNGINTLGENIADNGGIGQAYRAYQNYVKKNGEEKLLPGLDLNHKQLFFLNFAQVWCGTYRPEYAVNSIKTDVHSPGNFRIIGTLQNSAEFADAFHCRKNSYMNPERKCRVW
Kind of assay: NEP-inhibitory activity (inhibition of [3H]Tyr-Gly-Gly formation from [3H][Leu5]-enkephaline in kidney cortex membranes).

For another assay, the target named is T2, ACE (Oryctolagus cuniculus, UniProt P12822).
T2 construct: ACE (250 mU/ml purified by lung rabbit, EC 3.4.15.1 SIGMA); purchased SIGMA; host or cells: rabbit lung
T2 sequence (P12822 34-1310): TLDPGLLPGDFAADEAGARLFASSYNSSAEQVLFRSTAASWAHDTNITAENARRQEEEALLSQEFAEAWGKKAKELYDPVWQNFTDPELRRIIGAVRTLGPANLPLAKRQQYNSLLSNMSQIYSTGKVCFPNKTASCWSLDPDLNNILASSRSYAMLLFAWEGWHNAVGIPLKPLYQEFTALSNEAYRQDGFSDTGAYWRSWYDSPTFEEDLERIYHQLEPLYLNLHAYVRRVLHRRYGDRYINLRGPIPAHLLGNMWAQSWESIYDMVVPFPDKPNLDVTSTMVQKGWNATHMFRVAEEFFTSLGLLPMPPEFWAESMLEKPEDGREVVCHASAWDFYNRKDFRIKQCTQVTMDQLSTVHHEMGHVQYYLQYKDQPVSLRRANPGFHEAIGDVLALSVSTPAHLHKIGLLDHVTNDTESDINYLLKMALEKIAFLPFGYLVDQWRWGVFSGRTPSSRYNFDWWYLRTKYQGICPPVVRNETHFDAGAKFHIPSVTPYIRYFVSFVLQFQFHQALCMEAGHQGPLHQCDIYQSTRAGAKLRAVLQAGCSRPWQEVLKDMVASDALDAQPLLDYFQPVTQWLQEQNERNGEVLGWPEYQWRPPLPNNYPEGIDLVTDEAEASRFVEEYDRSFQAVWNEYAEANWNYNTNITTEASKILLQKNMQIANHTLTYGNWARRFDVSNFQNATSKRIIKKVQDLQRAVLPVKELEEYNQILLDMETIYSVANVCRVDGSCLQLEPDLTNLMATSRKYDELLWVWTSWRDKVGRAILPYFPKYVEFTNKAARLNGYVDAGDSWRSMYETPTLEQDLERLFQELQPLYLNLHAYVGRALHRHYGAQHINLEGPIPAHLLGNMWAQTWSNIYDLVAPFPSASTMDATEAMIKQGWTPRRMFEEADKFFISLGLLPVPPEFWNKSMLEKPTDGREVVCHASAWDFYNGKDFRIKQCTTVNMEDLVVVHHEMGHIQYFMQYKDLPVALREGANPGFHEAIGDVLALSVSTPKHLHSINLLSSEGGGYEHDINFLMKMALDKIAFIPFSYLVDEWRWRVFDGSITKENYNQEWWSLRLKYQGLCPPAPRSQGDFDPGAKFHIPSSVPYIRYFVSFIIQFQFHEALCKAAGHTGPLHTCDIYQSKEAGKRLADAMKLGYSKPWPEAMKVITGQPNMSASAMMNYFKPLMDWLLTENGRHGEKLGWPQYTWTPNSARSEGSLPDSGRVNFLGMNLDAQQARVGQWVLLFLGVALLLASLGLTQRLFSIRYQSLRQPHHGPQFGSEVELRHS
Briefly: ACE-inhibitory activity (FAPGG hydrolysis, absorbance at 340 nm). It counts as biochemical. The following applies: ACE purified by lung rabbit, FAPGG 0.8 mM, 37°C; compounds of formula I tested in the form of sodium salts. As to the method:
[…] of ACE (250 mU/ml purified by lung rabbit, EC 3.4.15.1 SIGMA) with 50 µl of the compound of formula I or of the reference compounds, were preincubated in thermostated cuvettes at 37°C for 5 minutes.
The reaction was started by adding furylacryloylphenylalanylglycylglycine 0.8 mM (FAPGG-SIGMA).
Contemporaneously, by using a Beckman DU-50 spectrophotometer provided with a program for calculating delta A/minutes and regression coefficients of the enzyme kinetics curves, the absorbance at 340 nm was recorded in continuo for 5 minutes.

In the case of `C[C@H](CS)C(=O)N1CCC[C@H]1C(=O)O` [Captopril, reference compound], the “NEP-inhibitory activity IC50 (nM)” value on NEP (membranes from rat kidney cortex, [3H][Leu5]-enkephaline 15 nM, 20 minutes at 30°C, compounds of formula I tested in the form of sodium salts) was “not active”.
Turning to `CC(C)C[C@H](N[C@@H](CCc1ccccc1)C(=O)O)C(=O)N[C@@H](Cc1ccc(-c2ccccc2)cc1)C(=O)O` [Compound 1, N-[N'-[(1S)-1-carboxy-3-phenyl-propyl]-L-leucyl]-(1.1'-biphenyl-4-yl)-L-alanine disodium salt], the IC50 on ACE was 1.5 nM; against NEP it was 27.7 nM.
Taken in the same sequence, the figures for `CC(C)[C@H](N[C@@H](CCc1ccccc1)C(=O)O)C(=O)N[C@@H](Cc1ccc(-c2ccccc2)cc1)C(=O)O` [Compound 10] were 2 nM and 41 nM.
Take `O=C(O)[C@H](Cc1ccc(-c2ccccc2)cc1)NC(=O)[C@H](Cc1cccs1)N[C@@H](CCc1ccccc1)C(=O)O` [Compound 15]: the IC50 at ACE was determined as 1.8 nM; at NEP it was 10 nM.
With `CC(C)C[C@H](N[C@@H](CCC(=O)Nc1ccccc1)C(=O)O)C(=O)N[C@@H](Cc1ccc(-c2ccccc2)cc1)C(=O)O` [Compound 17], the figures for the IC50 on ACE and on NEP were 2.2 nM and 27 nM, respectively.
With `CC(C)C[C@H](N[C@@H](CC(=O)NCc1ccccc1)C(=O)O)C(=O)N[C@@H](Cc1ccc(-c2ccccc2)cc1)C(=O)O` [Compound 20], the figures for the IC50 on ACE and against NEP were 15 nM and 53 nM, respectively.

One may read the IC50 as the concentration at which inhibition is half-maximal.
